Converted amounts (≈) assume the structure as drawn. “And” between values parts separate entries of the source, which are not always exact repeats. Equal entries are not always repeated. Where two headings read alike, the source gives them in different places.

Twelve compounds from patent US20250236607A1, “CYCLIN-DEPENDENT KINASE 9 (CDK9) DEGRADERS AND METHODS OF USING THEREOF” (OHIO STATE INNOVATION FOUNDATION, priority 2022, published 2025) can be followed below.

One series has as its system MOLM13 cells. In words: Cytotoxicity against MOLM13 cells. The following applies: MOLM13 cells, read-out: IC50. It is filed as cell-based. The text has this: (§1) Through amide coupling using I-ethyl-3-carbodiimide hydrochloride (EDC.HCl), the alkynyl derivatives of 4.16, 4.29 and 4.30 were synthesized. Using these VIP152-derivatives, degraders 4.31, 4.33 and 4.34 were synthesized using click chemistry. Degrader 4.32 was also synthesized using amide coupling conditions with (1-[Bis([…])methylene]-1H-1,2,3-triazolo[4,5-b]pyridinium 3-oxide hexafluorophosphate (HATU) and the carboxylic acid 4.28. Scheme 7 illustrates the synthesis of this initial series. The series was evaluated for cytotoxicity against MOLM13 cells (IC50) and for their CDK9 degradation potency (DC50). The results are provided in Table 3.

The target of another series is T1, CDK9 (Homo sapiens, UniProt P50750+Q96SW2).
T1 construct: endogenous in cells
The series can be described thus: CDK9 degradation potency (DC50) of VIP152-based degraders. The following applies: VIP152-based series. It is filed as cell-based.
Text: as §1

Series [1] can be described thus: Chromatographic log D determination (log k′80). The series is classed as physicochemical. Conditions: chromatographic log D, PLRP-S column, pH 7.72. How it is done:
Chromatographic Log D Determination. Test samples were prepared from 10 mM stock solutions in DMSO, to make 122 μM solutions in acetonitrile. Retention times were determined on a Shimadzu High Performance Liquid Chromatography (HPLC) system with Agilent PLRP-S column, 100 Å, 5 um particle size, 50×4.6 mm (part no.: PL1512-1500) with 1 mL/min flow rate. A 65 mM aqueous solution of ammonium acetate was prepared in water and diluted with acetonitrile to give 0.1% ammonium acetate 20:80 acetonitrile solution with pH 7.72. Eluents were detected with UV spectrophotometry at 337 nm. As a standard set, the retention times of β-estradiol, nifedipine, quinoline, phenol and 2-nitrophenol were determined (log k′80) and the dead time was extrapolated based on the reported log k′80 values originally reported by Caron et. al (log k′80*). The average value of the dead time for the standard set was 0.3001 minutes. Therefore, for consistency, 0.3 minutes was used as the dead time for all test samples. Experiments were performed in triplicate with a maximum percent standard deviation of 6.85%.

Another series can be described thus: Kinetic solubility assay. The following applies: for Solubility / solubility at 1.5 h: kinetic solubility, PBS pH 7.4; for solubility at 1.5 h: Solubility (μM).
Another series deals with MV411 cells. The series can be described thus: MTS cytotoxicity assay against MV411 cells. The following applies: Homo sapiens, MV4-11. The series is classed as cell-based. How it is done:
The obtained compounds were tested in biological experiments to measure their potency in inhibiting the growth of AML cells and in their degradation of CDK9. These measurements are reported as half-maximum growth inhibitory and half-maximum degradation concentrations, IC50s and DC50s, respectively. Maximum percent degradation (Dmax) values were also obtained during the CDK9 degradation assessments. The common MTS assay was used to acquire the IC50 values, while the DC50 values were obtained using an automated western blot experiment. These values are presented in Table 2, along with pIC50 (log(nM IC50)) to more accurately reflect the differences/lack thereof in in vitro cytotoxicity. The notation “N:N*” represents the number of linker atoms on each side of the rigid triazole ring for a given degrader. Predicted log D values, calculated using the ChemAxon […], are also provided for each degrader. To characterize the physicochemical properties of the new degrader series, two additional assays were performed: a kinetic aqueous solubility assay and the chromatographic log D experiment described earlier. Aqueous solubility is shown in μM while experimentally determined log D is shown as log k′80. Details regarding the execution of each experiment are provided below.

The mark [2] stands for this setting: Homo sapiens, MOLM-13, cytotoxicity.
Setting [3] is: phosphate buffered saline, pH 7.4, aqueous buffer, kinetic from dmso stock.

T1 sequence (P50750 whole entry): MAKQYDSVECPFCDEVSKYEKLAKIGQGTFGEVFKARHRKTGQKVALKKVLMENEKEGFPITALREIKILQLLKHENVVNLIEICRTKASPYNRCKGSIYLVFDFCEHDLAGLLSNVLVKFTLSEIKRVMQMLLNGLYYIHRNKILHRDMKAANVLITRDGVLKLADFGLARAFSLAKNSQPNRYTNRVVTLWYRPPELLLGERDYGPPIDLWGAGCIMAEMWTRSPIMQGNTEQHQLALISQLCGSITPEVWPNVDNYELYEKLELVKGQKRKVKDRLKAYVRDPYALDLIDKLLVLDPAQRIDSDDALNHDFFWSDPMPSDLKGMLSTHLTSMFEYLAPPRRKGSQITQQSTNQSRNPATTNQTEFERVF
T1 sequence (O60563 whole entry partner): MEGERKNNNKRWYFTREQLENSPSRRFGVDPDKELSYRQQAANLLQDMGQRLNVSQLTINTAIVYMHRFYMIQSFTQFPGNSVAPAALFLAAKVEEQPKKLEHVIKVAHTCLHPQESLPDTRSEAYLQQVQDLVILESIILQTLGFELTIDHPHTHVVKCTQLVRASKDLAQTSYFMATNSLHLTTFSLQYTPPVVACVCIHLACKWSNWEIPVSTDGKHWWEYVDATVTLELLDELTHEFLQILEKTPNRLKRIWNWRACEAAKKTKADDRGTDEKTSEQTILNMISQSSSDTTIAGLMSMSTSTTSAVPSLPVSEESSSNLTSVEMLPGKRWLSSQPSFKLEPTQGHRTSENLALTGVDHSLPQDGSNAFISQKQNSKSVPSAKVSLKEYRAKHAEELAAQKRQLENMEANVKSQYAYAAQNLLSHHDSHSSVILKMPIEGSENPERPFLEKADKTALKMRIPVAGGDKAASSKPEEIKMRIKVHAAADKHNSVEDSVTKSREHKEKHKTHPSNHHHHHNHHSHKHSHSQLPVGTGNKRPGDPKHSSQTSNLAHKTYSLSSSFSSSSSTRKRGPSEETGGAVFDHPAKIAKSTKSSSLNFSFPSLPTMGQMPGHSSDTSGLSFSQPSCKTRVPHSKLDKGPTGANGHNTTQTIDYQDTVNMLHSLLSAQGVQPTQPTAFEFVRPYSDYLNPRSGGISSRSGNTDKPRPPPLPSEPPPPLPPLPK
T1 sequence (Q96SW2 whole entry): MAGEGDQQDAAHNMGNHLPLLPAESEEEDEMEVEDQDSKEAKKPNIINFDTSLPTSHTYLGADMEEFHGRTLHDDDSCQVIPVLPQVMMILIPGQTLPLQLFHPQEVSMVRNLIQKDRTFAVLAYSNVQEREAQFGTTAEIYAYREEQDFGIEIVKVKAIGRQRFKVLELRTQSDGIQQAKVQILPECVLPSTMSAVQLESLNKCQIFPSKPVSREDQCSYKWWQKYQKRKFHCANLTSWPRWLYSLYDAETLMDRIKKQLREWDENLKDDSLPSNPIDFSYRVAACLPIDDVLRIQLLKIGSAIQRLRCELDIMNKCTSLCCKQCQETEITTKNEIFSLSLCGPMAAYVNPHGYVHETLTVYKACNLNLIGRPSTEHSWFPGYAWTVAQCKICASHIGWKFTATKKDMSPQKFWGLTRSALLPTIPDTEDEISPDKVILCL
T1 sequence (Q16531 whole entry partner): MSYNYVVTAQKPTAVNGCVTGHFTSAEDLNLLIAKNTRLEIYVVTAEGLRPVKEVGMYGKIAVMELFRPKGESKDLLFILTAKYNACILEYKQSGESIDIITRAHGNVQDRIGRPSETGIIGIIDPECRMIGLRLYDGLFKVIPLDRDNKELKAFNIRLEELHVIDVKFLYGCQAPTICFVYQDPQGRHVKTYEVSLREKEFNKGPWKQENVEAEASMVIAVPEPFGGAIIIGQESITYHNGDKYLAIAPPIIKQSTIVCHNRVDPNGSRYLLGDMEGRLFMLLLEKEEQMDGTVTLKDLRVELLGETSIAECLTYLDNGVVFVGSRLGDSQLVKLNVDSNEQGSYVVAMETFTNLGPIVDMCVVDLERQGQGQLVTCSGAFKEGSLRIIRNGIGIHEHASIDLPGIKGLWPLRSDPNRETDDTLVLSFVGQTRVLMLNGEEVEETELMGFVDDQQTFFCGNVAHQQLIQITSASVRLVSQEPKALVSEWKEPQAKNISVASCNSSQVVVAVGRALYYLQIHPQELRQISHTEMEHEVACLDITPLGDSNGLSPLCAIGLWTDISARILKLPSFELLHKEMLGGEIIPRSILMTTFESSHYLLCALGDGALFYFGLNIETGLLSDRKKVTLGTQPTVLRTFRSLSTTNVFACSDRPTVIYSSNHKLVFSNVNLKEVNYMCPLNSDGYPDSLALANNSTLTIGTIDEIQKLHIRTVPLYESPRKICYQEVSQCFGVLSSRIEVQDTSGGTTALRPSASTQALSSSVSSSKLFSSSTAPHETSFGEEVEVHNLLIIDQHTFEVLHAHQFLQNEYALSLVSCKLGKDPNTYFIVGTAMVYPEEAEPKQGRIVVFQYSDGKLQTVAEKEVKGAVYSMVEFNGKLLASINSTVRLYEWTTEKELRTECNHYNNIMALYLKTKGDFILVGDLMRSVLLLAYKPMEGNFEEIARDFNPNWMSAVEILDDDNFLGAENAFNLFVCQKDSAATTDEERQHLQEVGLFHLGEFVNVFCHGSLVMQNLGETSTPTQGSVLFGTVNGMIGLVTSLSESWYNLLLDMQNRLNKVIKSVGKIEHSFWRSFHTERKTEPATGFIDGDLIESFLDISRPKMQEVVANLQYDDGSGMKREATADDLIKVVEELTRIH

What is called DC50 is the midpoint of the concentration-degradation curve. A word on the Solubility: it is the concentration that dissolves in the medium under given conditions. Low values mean a poorly soluble substance, high ones a readily soluble substance. Regarding “1-((1-(1-((2-(2,6-dioxopiperidin-3-yl)-1,3-dioxoisoindolin-4-yl)glycyl)azetidin-3-yl)-1H-1,2, 3-triazol-4-yl)methyl)-N-(((2-((5-fluoro˜4-(4-fluoro-2-methoxyphenyl)pyridin-2-yl)amino)pyridin-4-yl)methyl)(methyl)(oxo)-16-sulfaneylidene)piperidine-3-carboxamide [Compound 4.63]”, the IC50 in the series on MOLM13 cells (cytotoxicity) worked out at 550 nM. The compound also came in with a DC50 on CDK9 of 460 nM. In addition, in series [1], the “logk′80” value is recorded as 0.19. For the same compound, the “Solubility” value in the series “Kinetic solubility assay” was 10.8 µM.
The solubility is the concentration that dissolves in the medium under given conditions. For `COc1cc(F)ccc1-c1cc(Nc2cc(CS(C)(=N)=O)ccn2)ncc1F` (racemic) [Compound 4.16, ((2-((5-fluoro-4-(4-fluoro-2-methoxyphenyl)pyridin-2-yl)amino)pyridin-4-yl)methyl)(imino)(methyl)4-sulfa-none, reference compound], the IC50 in the series on MOLM13 cells (setting [2]) is 60 nM. Besides, in series [1], the “logk′80” value is recorded as 0.15. Besides, the solubility at 1.5 h in the series “Kinetic solubility assay” (setting [3]) was determined as 403 µM (≈ 163 µg/mL).
The term EC50 denotes the concentration at which the effect is half-maximal. Read a low EC50 as higher potency in that assay. For the compound `O=C(NC1CCNCC1)c1n[nH]cc1NC(=O)c1c(Cl)cccc1Cl` [AT7519, 4-(2,6-dichlorobenzamido)-N-(piperidin-4-yl)-1H-pyrazole-3-carboxamide, reference compound], in the series on MV411 cells (Table 1, cytotoxicity MV411 cells), the EC50 was found to be 200 nM. The IC50 in the series on MV411 cells (defined as log(nM IC50), MV411, read-out: pIC50 (converted)) was 126 nM; in the series with MV411 cells (growth inhibition, MV411 cells, MTS, read-out: IC50), 119 nM.
Regarding `COc1cc(F)ccc1-c1cc(Nc2cc(CS(C)(=O)=NC(=O)CCCCc3cn(CCCOc4cccc5c4C(=O)N(C4CCC(=O)NC4=O)C5=O)nn3)ccn2)ncc1F` (stereo not shown) [Compound 4.31, 5-(1-(3-((2-(2,6-dioxopiperidin-3-yl)-1,3-dioxoisoindolin-4-yl)oxy)propyl)-1H-1,2,3-triazol-4-yl)-N-(((2-((5-fluoro-4-(4-fluoro-2-methoxyphenyl)pyridin-2-yl)amino)pyridin-4-yl)methyl)(methyl)(oxo)-16-sulfaneylidene)pentanamide], in the series on MOLM13 cells (setting [2]), the IC50 turned out to be 170 nM. The “logk′80” value in series [1] is recorded as 0.17. Moreover, the solubility at 1.5 h in the series “Kinetic solubility assay” (setting [3]) was < 5 µM.
As to `COc1cc(F)ccc1-c1cc(Nc2cc(CS(C)(=O)=NC(=O)CCCCCCCCCCNC(=O)CNc3cccc4c3C(=O)N(C3CCC(=O)NC3=O)C4=O)ccn2)ncc1F` (stereo not shown) [Compound 4.32, 11-(2-((2-(2,6-dioxopiperidin-3-yl)-1,3-dioxoisoindolin-4-yl)amino)acetamido)-N-(((2-((5-fluoro-4-(4-fluoro-2-methoxyphenyl)pyridin-2-yl)amino)pyridin-4-yl)methyl)(methyl)(oxo)-16-sulfaneylidene)undecanamide], the IC50 in the series on MOLM13 cells (setting [2]) stood at 140 nM. Besides, on CDK9, the DC50 was 120 nM. Also, the “logk′80” value in series [1] was 0.28.
For the compound `COc1cc(F)ccc1-c1cc(Nc2cc(CS(C)(=O)=NC(=O)CCc3cn(CCCOc4cccc5c4C(=O)N(C4CCC(=O)NC4=O)C5=O)nn3)ccn2)ncc1F` (stereo not shown) [Compound 4.33, 3-(1-(3-((2-(2,6-dioxopiperidin-3-yl)-1,3-dioxoisoindolin-4-yl)oxy)propyl)-1H-1,2,3-triazol-4-yl)-N-(((2-((5-fluoro-4-(4-fluoro-2-methoxyphenyl)pyridin-2-yl)amino)pyridin-4-yl)methyl)(methyl)(oxo)-16-sulfaneylidene)propenamide], in the series on MOLM13 cells (setting [2]), the IC50 was 190 nM. Further, at CDK9, the DC50 amounted to 170 nM. In addition, the “logk′80” value in series [1] is listed as 0.15.
Turning to `COc1cc(F)ccc1-c1cc(Nc2cc(CS(C)(=O)=NC(=O)CN3CCN(Cc4cn(C5CN(c6cccc7c6C(=O)N(C6CCC(=O)NC6=O)C7=O)C5)nn4)CC3)ccn2)ncc1F` (stereo not shown) [Compound 4.50, 2-(4-((1-(1-(2-(2,6-dioxopiperidin-3-yl)-1,3-dioxoisoindolin-4-yl)azetidin-3-yl)-11H-1,2,3-triazol-4-yl)methyl)piperazin-1-yl)-N-(((2-((5-fluoro-4-(4-fluoro-2-methoxyphenyl)pyridin-2-yl)amino)pyridin-4-yl)methyl)(methyl)(oxo)-16-sulfaneylidene)acetamide], in the series with MOLM13 cells (setting [2]), the IC50 was determined as 1540 nM. Also, the 50% degradation concentration (DC50) at CDK9 is 930 nM. In “Kinetic solubility assay”, the “Solubility” value stood at 13.9 µM (≈ 12.8 µg/mL). For the same compound, the solubility at 1.5 h in the series “Kinetic solubility assay” (setting [3]) was ~15 µM (≈ 13.8 µg/mL).
On to `COc1cc(F)ccc1-c1cc(Nc2cc(CS(C)(=O)=NC(=O)CN3CCC(c4cn(CC(=O)N5CCN(CC#Cc6cccc7c6C(=O)N(C6CCC(=O)NC6=O)C7=O)CC5)nn4)CC3)ccn2)ncc1F` (stereo not shown) [Compound 4.61, 2-(4-(1-(2-(4-(3-(2-(2,6-dioxopiperidin-3-yl)-1,3-dioxoisoindolin-4-yl)prop-2-yn-1-yl)piperazin-1-yl)-2-oxoethyl)-1H-1,2,3-triazol-4-yl)piperidin-1-yl)-N-(((2-((5-fluoro-4-(4-fluoro-2-methoxyphenyl)pyridin-2-yl)amino)pyridin-4-yl)methyl)(methyl)(oxo)-16-sulfaneylidene)acetamide], for which the IC50 in the series with MOLM13 cells (setting [2]) was 340 nM. On CDK9, the DC50 amounted to 170 nM. For the same compound, the concentration in solution in “Kinetic solubility assay” (setting [3]) (solubility at 1.5 h) came to 1.8 µM (≈ 1.83 µg/mL).
On to `COc1cc(F)ccc1-c1cc(Nc2cc(CS(C)(=O)=NC(=O)C3CCCN(Cc4cn(CC(=O)N5CCN(CCCc6cccc7c6C(=O)N(C6CCC(=O)NC6=O)C7=O)CC5)nn4)C3)ccn2)ncc1F` (stereo not shown) [Compound 4.74, 1-({1-[2-(4-{3-[2-(2,6-dioxopiperidin-3-yl)-1,3-dioxo-2,3-dihydro-1H-isoindol-4-yl]propyl}piperazin-1-yl)-2-oxoethyl]-1H-1,2,3-triazol-4-yl}methyl)-N-{[(2-{[5-fluoro-4-(4-fluoro-2-methoxyphenyl)pyridin-2-yl]amino}pyridin-4-yl)methyl](methyl)oxo-λ^6-sulfanylidene}piperidine-3-carboxamide], for which the “logk′80” value in series [1] turned out to be 0.15.
For the compound `COc1cc(F)ccc1-c1cc(Nc2cc(CS(C)(=O)=NC(=O)C3CCCN(Cc4cn(CC5CCN(c6cccc7c6C(=O)N(C6CCC(=O)NC6=O)C7=O)CC5)nn4)C3)ccn2)ncc1F` (stereo not shown) [Compound 4.77, 1˜ {[1-({1-[2-(2,6-dioxopiperidin-3-yl)-1,3-dioxo-2,3-dihydro-1H-isoindol-4-yl]piperidin-4-yl}methyl)-1H-1,2,3-triazol-4-yl]methyl}-N-{[(2-{[5-fluoro-4-(4-fluoro-2-methoxyphenyl)pyridin-2-yl]amino}pyridin-4-yl)methyl](methyl)oxo-λ^6-sulfanylidene}piperidine-3-carboxamide], the IC50 with MOLM13 cells (setting [2]) was 640 nM. The DC50 on CDK9 turned out to be 260 nM. Moreover, in the series “Kinetic solubility assay” (setting [3]), the concentration in solution (solubility at 1.5 h) came to 8.9 µM (≈ 8.46 µg/mL).
For the compound `COc1cc(F)ccc1-c1cc(Nc2cc(CS(C)(=O)=NC(=O)CN3CCC(N4CCC(C#Cc5ccc6c(c5)CN(C5CCC(=O)NC5=O)C6=O)CC4)CC3)ccn2)ncc1F` (stereo not shown) [Compound 4.103, 2-(4-{2-[2-(2,6-dioxopiperidin-3-yl)-1-oxo-2,3-dihydro-1H-isoindol-5-yl]ethynyl}-[1,4′-bipiperidin]-1′-yl)-N-{[(2-{[5-fluoro-4-(4-fluoro-2-methoxyphenyl)pyridin-2-yl]amino}pyridin-4-yl)methyl](methyl)oxo-26-sulfanylidene}acetamide], the IC50 in the series on MOLM13 cells (cytotoxicity) worked out at 120 nM. Moreover, the “logk′80” value in series [1] is on record as 0.15. The “Solubility” value in “Kinetic solubility assay” was 29 µM and 29.1 µM.
As usually defined, the solubility (kinetic) is the concentration staying in solution when a stock, usually in DMSO, is diluted into the medium. For the compound `COc1cc(F)ccc1-c1cc(Nc2cc(CS(C)(=O)=NC(=O)CN3CCC(N4CCN(CC#Cc5ccc6c(c5)CN(C5CCC(=O)NC5=O)C6=O)CC4)CC3)ccn2)ncc1F` (stereo not shown) [Compound 4.104, 2-[4-(4-{3-[2-(2,6-dioxopiperidin-3-yl)-1-oxo-2,3-dihydro-1H-isoindol-5-yl]prop-2-yn-1-yl}piperazin-1-yl)piperidin-1-yl]-N-{[(2-{[5-fluoro-4-(4-fluoro-2-methoxyphenyl)pyridin-2-yl]amino}pyridin-4-yl)methyl](methyl)oxo-16-sulfanylidene}acetamide], in the series on MOLM13 cells (setting [2]), the IC50 was > 1000 nM. In addition, the IC50 with MOLM13 cells (cytotoxicity) was found to be 1100 nM. Further, in “Kinetic solubility assay” (setting [3]), the solubility (kinetic) at 1.5 h was > 50 µM and the concentration in solution (solubility at 1.5 h) was 51.6 µM (≈ 46.1 µg/mL).
